Where a name gives a salt, the structure may show the parent alone.
Test system: Pseudomonas aeruginosa
Assay: MIC determination via the microdilution method
Format: cell-based
Details: read-out: minimum inhibitory concentration (MIC)
Excerpt: Ciprofloxacin hydrochloride and gatifloxacin hydrochloride were supplied by Junda Pharmaceutical Co. Ltd (of Guangzhou of China). The aqueous solution of ciprofloxacin hydrochloride and gatifloxacin hydrochloride (at a weight ratio of 1:2.5) was obtained by dissolving both drugs together in water. The weight ratio of the individual quinolone in the solution (as well as in the resultant spray-dried particle) was based on the quinolone's minimum inhibitory concentration (MIC). The MIC was experimentally determined and a ratio of the quinolones was obtained as a guideline in developing the final workable proportion. The quinolones' MIC values were important as they provided preliminary guidance on the required therapeutic dose of each quinolone in the binary (SD-CIP/GAT) powder formulation (i.e. combination ratios). The MICs of the various quinolones for the bacteria Pseudomonas aeruginosa different bacteria were determined via the microdilution method and used to determine the desired binary drug proportions. For the bacteria Pseudomonas aeruginosa, since MICCIP:MICGAT is 1:2 (actual values are 0.25 μg/ml:0.5 μg/ml), the binary formulation was composed of CIP:GAT in the ratio of 1:2. […]

| Structure (SMILES) | MIC [µg/mL] |
| --- | --- |
| COc1c(N2CCNC(C)C2)c(F)cc2c(=O)c(C(=O)O)cn(C3CC3)c12 (centres unmarked) [GAT, gatifloxacin hydrochloride] | 0.5 |
| O=C(O)c1cn(C2CC2)c2cc(N3CCNCC3)c(F)cc2c1=O [CIP, ciprofloxacin hydrochloride] | 0.25 |

Source: US9707228B2, “Dry powder formulation” (Agency for Science, Technology and Research, priority 2012, dated 2017)
